Assay results taken from patent publication US20140242673A1, “CHEMICALLY DEFINED CULTURE MEDIUM FOR FERMENTATION TO PRODUCE SUCCINIC ACID AND APPLICATION THEREOF” (NANJING UNIVERSITY OF TECHNOLOGY, priority 2011, published 2014).

Assays:
Type in all cases: cell-based
[1] = test system: Mannheimia succiniciproducens MBEL55E; assay: Production of succinic acid by fermentation with biotin replaced by 5-ALA
Method: In this preferred embodiment, biotin (10˜20 mg/L) in culture medium is replaced by 0.1˜1 mg/L of 5-ALA, for fermentation experiment.
The microorganism adopts large Mannheimia succiniciproducens MBEL55E (strain from patents of publication No. EP2096177 and No. EP2199304).
Cultivation in fermenter: transfer activated seed liquid and sterilized glucose into fermenter; inoculum size shall be 7% (volume ratio); stirring speed shall be 200 rpm; allow fermentation at 37° C.; amount of CO2 connected shall be 0.25 vvm.
Conventional compositions of fermentation culture medium (g/L): 10 of mixed carbohydrate obtained from pre-treated stalk (measured total carbohydrate concentration), 3 of disodium fumarate, 4 of KH2PO4, 0.4 of MgCl2.6H2O, 0.4 of CaCl2, and 2 of NaCl; sterilize at pH value of 7.0 and 121° C. for 15 min; ammonia is adopted as neutralizing agent.

Escherichia coli = assay: Production of succinic acid by fermentation at different biotin concentrations
Method: This preferred embodiment reduces biotin consumption in the culture medium. Particular method of change of fermentation culture medium is described below.
Germ seed: Escherichia coli (strain from patent of publication No. CN102154339A)
Cultivation in fermenter: transfer activated seed liquid and sterilized glucose into fermenter; inoculum size shall be 5% (volume ratio); stirring speed shall be 200 rpm; allow fermentation at 37° C.; amount of CO2 connected shall be 0.25 vvm.
Conventional compositions of fermentation culture medium (g/L): 30 of glucose (separately sterilized), 2 of disodium fumarate, 3 of KH2PO4, 0.3 of MgCl2.6H2O, 0.23 of CaCl2, and 1 of NaCl; sterilized at pH of 7.0 and 121° C. for 15 min; sodium carbonate adopted as neutralizing agent.
In a 100 mL serum bottle, add 15 g/L of Na2HPO4, 4 g/L of KH2PO4, 13.1 mL of water, and 1 mL of Actinobacillus succinogenes NJ113 (CGMCC 1716) seed liquid after being washed by sterilized water; sterilize at 121° C. for 15 min, and then add 4 mL of reserved mixed liquid containing corresponding concentrations of amino acids, 0.5 mL of mixed liquid of vitamins including niacin and biotin so that […], 1 mL of reserved mixed liquid containing all metal salts being tested, and 0.4 mL of sterilized 500 g/L glucose solution, so that total volume after inoculation reaches 20 mL and glucose concentration is 10 g/L.
Fermentation experiment of above culture media containing different concentrations of biotin has been carried out under the same fermentation conditions as preferred embodiment 1:
According to identical germ seed, fermentation conditions, and experiment method of this preferred embodiment, biotin consumption in the culture medium is further lowered, to concentrations of 50 μg/L, 100 μg/L, 150 μg/L, 200 μg/L, and 300 μg/L respectively, for fermentation experiment: […]

[2] = test system: Actinobacillus succinogenes NJ113 (CGMCC 1716); assay: Fermentation in defined medium with one growth factor missing (serum bottle, 30 h); conditions: for bacterial growth / glucose remaining / succinic acid production: culture medium lacks the named growth factor; for OD660 / Residual glucose / Succinic acid: medium lacking the named growth factor, 30 h, 37° C., 200 rpm
Excerpt: To investigate the effect of critical factors on succinic acid production described by this invention can use any microorganism germ seed used for production of succinic acid using anaerobic fermentation in existing technology. This preferred embodiment uses NJ113 (Actinobacillus succinogenes NJ113), which has been patented (authorized publication No.: CN100537744C).
First, significance and effect of various amino acids, vitamins, and metallic microelements on bacterial growth and metabolism has been investigated on defined medium. Particular operation and cultivation conditions are as follows:
(1) Preparation of amino acid mixed liquids: Remove each one type of amino acid from the 18 types of amino acid being tested, to prepare a mixed liquid of remaining 17 types of amino acid of suitable concentration (suitable concentration refers to the concentration at which the substance of lowest solubility is completely dissolved), as well as a mixed liquid containing all 18 types of amino acid. Quantity of each such liquid is 100 mL. After filtration sterilization by 0.22 μm sterile filtering head, keep these liquids for later use. Refer to Attached Table 1 for contents of various amino acids in the culture medium.
(2) Preparation of vitamin mixed liquids: Using the method in […], remove each one type of vitamin from the 10 types of vitamin being tested, to prepare a mixed liquid of remaining 9 types of vitamin of suitable concentration (suitable concentration refers to the concentration at which the substance of lowest solubility is completely dissolved), as well as a mixed liquid containing all 10 types of vitamin. Quantity of each such liquid is 100 mL. After filtration sterilization by 0.22 μm sterile filtering head, keep these liquids for later use. Refer to Attached Table 1 for contents of various vitamins in the culture medium.
(3) Preparation of metallic microelement mixed liquids: Using the method in step (1), remove each one type of metal salt from the 12 types of metal salt being tested, to prepare a mixed liquid of remaining 11 types of metal salt of suitable concentration (suitable concentration refers to the concentration at which the substance of lowest solubility is completely dissolved), as well as a mixed liquid containing all 12 types of metal salt. Quantity of each such liquid is 100 mL. After sterilization at 121° C. for 15 min, keep these liquids for later use. Refer to Attached Table 1 for contents of various metal salts in the culture medium.
Conventional compositions of fermentation culture medium (g/L): 90 of glucose (separately sterilized), 1 of disodium fumarate, 2 of KH2PO4, 0.2 of MgCl2.6H2O, 0.2 of CaCl2, and 1 of NaCl; sterilized at pH of 7.0 and 121° C. for 15 min; sodium carbonate adopted as neutralizing agent.
In a 100 mL serum bottle, add […] of fermentation culture medium and 1 mL of Actinobacillus succinogenes NJ113 (CGMCC 1716) seed liquid that has been washed by sterilized water; sterilize at 121° C. for 15 min; and then add 4 mL of reserved mixed liquid not containing a type of amino acid, 0.5 mL of reserved mixed liquid containing all vitamins being tested, 1 mL of reserved mixed liquid containing all types of metal salt being tested, and […] of sterilized 600 g/L glucose, so that after inoculation, the total volume reaches 20 mL and glucose concentration is 30 g/L.
Use the same method to prepare fermentation culture medium that lacks a certain type of vitamin or metal salt.
Carry out fermentation of above culture media under the following conditions:
At mechanical shaker speed of 200 rpm and 37° C., allow fermentation for 30 h and then detect content of succinic acid in the fermentation liquid.

[3] = 5-ALA 0.1~1 mg/L replacing biotin

`NCC(=O)CCC(=O)O` [5-ALA, 5-aminolevulinate] was tested, and the Residual glucose [1, 3] was 3.4 g/L, the Succinic acid [1, 3] was 15.6 ± 0.2 g/L and the “output of succinic acid compared with biotin” value ([1]; biotin completely replaced by 5-ALA) was “can realize the highest output of succinic acid that can be obtained using biotin”.
`O=C(O)CCCC[C@@H]1SC[C@@H]2NC(=O)N[C@@H]21` [Biotin, biotin] gave a Residual glucose (Escherichia coli; biotin 50 μg/L) of 23 g/L, a Succinic acid (Escherichia coli; biotin 50 μg/L) of 1.6 g/L and a Residual glucose (Escherichia coli; biotin 100 μg/L) of 2.2 g/L. The Succinic acid (Escherichia coli; biotin 100 μg/L) was 15.8 g/L, the Residual glucose (Escherichia coli; biotin 150 μg/L) was 2.6 g/L and the Succinic acid (Escherichia coli; biotin 150 μg/L) was 16.2 g/L. For the same molecule, the Residual glucose (Escherichia coli; biotin 200 μg/L) was 2.5 g/L, the Succinic acid (Escherichia coli; biotin 200 μg/L) was 16.8 g/L and the Residual glucose (Escherichia coli; biotin 300 μg/L) was 2.8 g/L. For the same molecule, the Succinic acid (Escherichia coli; biotin 300 μg/L) was 16.7 g/L, the Residual glucose (Escherichia coli; biotin 2 mg/L) was 0 g/L and the Succinic acid (Escherichia coli; biotin 2 mg/L) was 18.8 g/L. The Residual glucose (Escherichia coli; biotin 4 mg/L) was 0 g/L, the Succinic acid (Escherichia coli; biotin 4 mg/L) was 18.6 g/L and the Residual glucose (Escherichia coli; biotin 6 mg/L) was 0 g/L. The Succinic acid (Escherichia coli; biotin 6 mg/L) was 17.7 g/L, the Residual glucose (Escherichia coli; biotin 8 mg/L) was 0 g/L and the Succinic acid (Escherichia coli; biotin 8 mg/L) was 19.4 g/L. For the same molecule, the Residual glucose (Escherichia coli; biotin 10 mg/L) was 0 g/L, the Succinic acid (Escherichia coli; biotin 10 mg/L) was 18.7 g/L and the Residual glucose (Escherichia coli; biotin 20 mg/L) was 0 g/L. For the same molecule, the Succinic acid (Escherichia coli; biotin 20 mg/L) was 18.5 g/L, the bacterial growth [2] was “relatively poor” and the glucose remaining [2] was “large amount of glucose remains”. The succinic acid production [2] was “very low”, the OD660 [2] was 0.3 and the Residual glucose [2] was 6.9 g/L. For the same molecule, the Succinic acid [2] was 0.7 g/L.
`N[C@@H](CCC(=O)O)C(=O)O` [Glutamic acid] was tested, and the bacterial growth [2] was “relatively poor”, the glucose remaining [2] was “large amount of glucose remains” and the succinic acid production [2] was “very low”. The OD660 [2] was 0.4, the Residual glucose [2] was 8.1 g/L and the Succinic acid [2] was 0.5 g/L.
For `CSCC[C@H](N)C(=O)O` [Methionine], the bacterial growth [2] was “relatively poor”, the glucose remaining [2] was “large amount of glucose remains” and the succinic acid production [2] was “very low”. The OD660 [2] was 0.6, the Residual glucose [2] was 4.3 g/L and the Succinic acid [2] was 1.3 g/L.
`O=C(O)c1cccnc1` [Niacin] was tested, and the bacterial growth [2] was “relatively poor”, the glucose remaining [2] was “large amount of glucose remains” and the succinic acid production [2] was “very low”. For the same molecule, the OD660 [2] was 0.2, the Residual glucose [2] was 5.6 g/L and the Succinic acid [2] was 0.1 g/L.
